These results are taken from article PMC2974656, “Selective killing of human immunodeficiency virus infected cells by non-nucleoside reverse transcriptase inhibitor-induced activation of HIV protease” (Retrovirology, 2010).

SMILES strings stand for the structures.

One series has as its system HIV-1IIIB. Briefly: Direct antiviral activity: MT4-LTR-EGFP cells infected with HIV-1IIIB, EGFP fluorescence. It is filed as cell-based. The following applies: MT4-LTR-EGFP cells, HIV-1IIIB MOI 0.01, 3 days; mean ± SD of three or more measurements; read-out: Inhibition of HIV replication in vitro EC50. On the procedure:
After 3 days of incubation, infected cells were quantified by determination of total EGFP fluorescence per well based on microscopy and subsequent image analysis. Threshold values were determined from the average pixel value plus 6 standard deviations from the uninfected control wells, and the median threshold from all control wells on a plate was defined as baseline GFP expression. Intensity values for the sample wells were then determined by subtracting the background threshold from each pixel value obtained from the image of the respective well and calculating the sum of net pixel intensities. Percent inhibition was calculated as 100 * (1 - (Sample - CC)/(VC - CC)).

The subject of series [1] is MT4-CMV-EGFP control cells. The series can be described thus: Cytotoxicity on uninfected control cells, EGFP fluorescence per well. It counts as cell-based. The protocol: The cytotoxicity of inhibitors was determined in parallel on MT4-CMV-EGFP control cells and on MT4-LTR-EGFP-IIIB virus producing cells, respectively.
Another series concerns the target T1, RT heterodimer (p66/p51) (Human immunodeficiency virus type 1 group M subtype B, UniProt P04585).
T1 construct: the bait protein (p66) was fused to the C-terminus of a chimeric receptor; expressed in transfected cells; host or cells: mammalian cells
The series can be described thus: cell-based. It counts as cell-based, HIV-1. From the text:
RT heterodimer formation was monitored using a mammalian two hybrid system described previously. In brief, the bait protein (p66) was fused to the C-terminus of a chimeric receptor consisting of the extracellular part of the erythropoietin receptor and the intracellular part of the leptin receptor incapable of STAT activation. The prey protein (p51) was coupled to a part of the cytoplasmic tail of the gp130 chain carrying several STAT3 recruitment domains. Interaction of bait and prey protein leads to functional complementation of STAT3 activity, which results in Epo dependent induction of a STAT3-responsive luciferase reporter gene. Enhancement of this interaction by the addition of compounds can thus be measured by an increase of luciferase expression.

In another series the test system is MT4-LTR-EGFP-IIIB cells. It is filed as cell-based. The following applies: 1 μM, 6 days, trypan blue. From the text:
(§1) In MT4-LTR-EGFP-IIIB cells, HIV expression could additionally be detected through long terminal repeat (LTR) driven expression of the gfp marker gene. As a control we used uninfected MT-4 cells or MT4-CMV-EGFP cells, constitutively expressing EGFP from a CMV promoter, respectively.
(§2) Cell lysates were harvested and analyzed by immunoblot using antiserum raised against HIV-1 CA. Positions of Gag and Gag-Pol processing products are marked at the right, molecular mass standards are indicated to the left (in kDa). […] Live cells were counted after trypan blue staining. Data represent mean values and standard deviations from three parallel cultures.

For series [2], the system named is MT4-LTR-EGFP parental cells. Particulars: 1 μM, 6 days, trypan blue.
Excerpt: as §1, §2

The test system of series [3] is Gag processing in MT-4-IIIB cells. The series can be described thus: Immunoblot of Gag processing in chronically infected MT-4 cells. It counts as cell-based, HIV-1. The following applies: 1 μM, day 2 post addition.
For the next series, the system named is HIV-1AGFP infected PBMC. The series can be described thus: Killing of HIV-1 infected PBMC, proportion of GFP expressing cells by flow cytometry. It is filed as cell-based, human. Particulars: 1 μM NNRTI, added day 2 post infection with AMD-3100, 5 days. (A flow cytometer gives signals particle by particle.)
For series [4], the system named is HXB2D-EGFP infected CD4 positive cells isolated from PBMC. Briefly: Killing of HIV-1 infected CD4 positive primary T-cells, flow cytometry. The following applies: 1 μM NNRTI + 1 μM AZT, 3 days. It is filed as cell-based, human. The protocol: To validate our results obtained for the persistently infected cell line in a more relevant cell system we performed additional infection experiments using human peripheral blood mononuclear cells (PBMC). […]. PBMC isolated from healthy blood donors were activated and infected with a replication competent HIV-1 derivative which carries a gfp gene in the nef locus. The co-receptor antagonist AMD-3100 was added at day 2 post infection to prevent further viral spread. This was done to distinguish the proposed killing of infected cells from the inhibitory effect of NNRTIs and PIs on virus replication. […]. […] Similar results were obtained upon infection of CD4-positive primary T-cells with an EGFP-expressing virus (Figure 4B).
Figure 4 NNRTI induced selective killing of HIV-1 infected primary human cells. (A) PBMC prepared from buffy coats of healthy blood donors were infected with HIV-1AGFP. At day 2 post infection, 100 ng/ml AMD-3100 was added to all samples to prevent further infection. […] After further incubation for 5 days, cells were harvested and analyzed for the proportion of infected GFP expressing cells by flow cytometry. […] P-values were calculated using a two-tailed unpaired t-test (GraphPad Prism). Values were normalized to the respective solvent control. (B) CD4 positive cells isolated from PBMC were infected with HXB2D-EGFP. […] After further incubation for 3 days, cells were harvested and analyzed for the proportion of infected cells by flow cytometry. […] Asterisks: non-infected controls.
Peripheral blood mononuclear cells (PBMC) were purified from buffy coats of HIV-negative blood donors, grown in supplemented RPMI 1640 and stimulated by the addition of 10 ng/ml IL-2 (Biomol) and 2 μg/ml PHA (Sigma). PBMC pooled from two donors each were used for infection. […] For infection of PBMC, the HIV-1 derivatives HIV-1-AGFP [49] carrying the gfp gene fused to the codon for amino acid 16 of Nef in pNL4-3, or HXB2D-EGFP [60], which carries an egfp gene in the place of the viral nef open reading frame, were used as indicated. […]

The subject of another series is 293T cells. The series can be described thus: Microscopically detectable impairment of cell growth of transfected 293T cells. It counts as cell-based. Particulars: high NNRTI concentrations (5 μM and above). The protocol: At 44 h post transfection, cell lysates were analyzed for β-Gal activity.

Protocol for HIV-1AGFP infected PBMC: PBMC isolated from healthy blood donors were activated and infected with a replication competent HIV-1 derivative which carries a gfp gene in the nef locus [49]. The co-receptor antagonist AMD-3100 was added at day 2 post infection to prevent further viral spread.

What is called CC50 is the concentration that lowers cell viability or growth by half. A low value points to harm at low concentration. As to `NS(=O)(=O)c1ccc(NC(=O)CSc2nnc(Br)n2-c2ccc(C3CC3)c3ccccc23)c(Cl)c1` [VRX-480773], the EC50 with HIV-1IIIB turned out to be 1.6 ± 0.81 nM. Further, in series [1], it took 5820 ± 1440 nM to reach half-maximal cytotoxicity (CC50) and the “CC50 on uninfected control cells relative to virus producing cells” value was ~ 10 fold. Also, on RT heterodimer (p66/p51) (concentration enhancing luciferase signal by 50% over control, read-out: Enhancement of RT-Dimerization EC50), the EC50 is 4 nM. In addition, the “Promotion of RT dimerization, in words” value at RT heterodimer (p66/p51) (summary of Table 1) is on record as “low nM range”. The “Live cell numbers, HIV infected MT4-LTR-EGFP-IIIB cells” value in the series on MT4-LTR-EGFP-IIIB cells is listed as “significant decrease”. The “Number of uninfected control cells” value in series [2] is listed as “remained constant”. Besides, in series [3], the “NNRTI mediated enhancement of Gag processing in virus producing cells” value was “decreased ratio of Gag to intermediate and fully mature processing products”. Moreover, in the series with HIV-1AGFP infected PBMC, the “Infected primary cells (PBMC) as compared with the control” value is “significant reduction”. Moreover, in series [4], the “Cytotoxicity on infected CD4-positive primary T-cells” value is listed as “PR dependent cytotoxicity”. In addition, the “Impairment of cell growth with decrease in β-Gal activity indicative of cytotoxic effects” value with 293T cells is reported as “most pronounced”.
